US10798893B2, “Induced chromosome doubling in plants” (Dow AgroSciences LLC, priority 2009, dated 2020)
Where two headings read alike, the source gives them in different places.

Key:
[1] = tested on: haploid germinated maize seedlings
Source text: An exemplary cycloalkene, 1,2,3-Trimethoxy-4-(1S,6R)-6-nitro-cyclohex-3-enyl)-benzene, designated as compound 1 was used to determine double haploid efficiency, doubling rate by a coleoptile tip cutting, seedling soaking method. […] Data provided in Tables 1, 2 and 3 were generated using haploid seeds obtained through cross pollination of a maize line of interest with an inducer maize line.
The resulting maize seeds were sorted based on marker gene color.
Coleoptile tips in maize seedlings were cut and the seedlings were soaked in various chromosome doubling agents as shown in Table 1. Haploid maize seeds were germinated and the coleoptile tips were excised (1-2 mm). Seedlings that survived were transplanted and grown until tassels and silk formed. Plants that produced tassels and silk were self-pollinated. Seeds produced from the self-pollination were visually assessed for the marker to identify them as double haploid (dihaploid).

[2] = tested on: germinated haploid maize seedlings; experiment: Foliar spray treatment of germinated haploid maize seedlings in soil at V1-V3 stage; format: in vivo
Procedure: Haploid maize seeds were planted in Sun Gro METRO-MIX® 306 planting mixture, which typically has a pH of 6.0 to 6.8 and an organic matter content of about 30 percent, in 72-well, plastic propagation flats (Dillen Products; Middlefield Ohio). When required to ensure good germination and healthy plants, a fungicide treatment and/or other chemical or physical treatment was applied. The plants were grown in a greenhouse with an approximate 15 hour photoperiod which was maintained at about 23-29° C. during the day and 22-28° C. during the night until they reached the V1-V3 growth stage. Nutrients and water were added on a regular basis and supplemental lighting was provided with overhead metal halide 1000-Watt lamps as necessary.
A weighed amount of compound 1, determined by the rate to be tested, was dissolved in 1.2 mL of dimethyl sulfoxide (DMSO) to obtain concentrated stock solutions. […] The concentrated stock solutions obtained were diluted with 10.8 mL of an aqueous mixture containing 1.25% v/v (volume/volume) Agri-dex Crop Oil Concentrate. Compound requirements are based upon a 12 mL application volume at a rate of 187 L/ha. Formulated compounds were applied to the plant material with an overhead Mandel track sprayer equipped with a 8002E nozzle calibrated to deliver 187 L/ha over an application area of 0.503 square meter at a spray height of 18 inches ([…]) above the average plant canopy height. Control plants were sprayed in the same manner with the solvent blank.
The treated plants and control plants were placed in a greenhouse, as described above, and watered by sub-irrigation to prevent wash-off of the test compounds. Approximately 14 days after treatment, the treated plants were transplanted to individual pots containing Sun Gro METRO-MIX® 360. Plants that produced tassels and silk were then self-pollinated to obtain dihaploid seed.
Table 3 illustrates the results of doubling rate after spray treatment with the chemicals of interest. […] The spray treated plant tassels and silks were synchronized well and the plants shed more pollen.

rabbit = details: cited from earlier work
rats = experiment: Dermal toxicity on rats; format: in vivo, rat; details: 200 mg/kg
[3] = after transplanting, rate 25 μM
[4] = after transplanting, rate 125 μM
[5] = seedling soak, colchicine 0.06% w/v (rate cell empty)

For `CC(C)OC(=O)Nc1cccc(Cl)c1` [Chlorpropham, chlorpropham], which “No. plants dead after TP” value ([1]; after transplanting, rate 5 μM) is on record?
Its value is 0.

And the “No. plants dead after TP” value [1, 3]?
Its value is 0.

And the “No. plants dead after TP” value [1, 4]?
Its value is 0.

What about the “# plants dead after treatment” value ([2]; spray, 70 g ai/ha) of the same compound?
The value was 0.

What about the “# plants dead after treatment” value ([2]; spray, 280 g ai/ha) of the same compound?
The value was 1.

Which results are given for `COc1cc2c(c(OC)c1OC)-c1ccc(OC)c(=O)cc1[C@@H](NC(C)=O)CC2` [Colchicine, colchicine]?
No. plants dead after TP ([1]; after transplanting, colchicine 0.06% w/v (rate cell empty)): 0; No. plants alive [1, 5]: 38; No. plants dead [1, 5]: 27; Eye irritation (rabbit): about 1 %/3D

What does the source list for `C#CC(C)(C)NC(=O)c1cc(Cl)cc(Cl)c1` [Pronamide, pronamide]?
No. plants dead after TP ([1]; after transplanting, rate 5 μM): 3; No. plants dead after TP [1, 3]: 1; No. plants dead after TP [1, 4]: 0; # plants dead after treatment ([2]; spray, 35 g ai/ha): 0; # plants dead after treatment ([2]; spray, 140 g ai/ha): 0

With `COc1ccc([C@@H]2CC=CC[C@H]2[N+](=O)[O-])c(OC)c1OC` [Compound 1, 1,2,3-Trimethoxy-4-((1S,6R)-6-nitro-cyclohex-3-enyl)-benzene] as the compound, how does the dermal toxicity (rats) read?
The dermal toxicity was “No dermal toxicity was observed”.

And the “No. plants dead after TP” value ([1]; maize, in vivo, 5 μM)?
The value was 2.

And the “No. plants dead after TP” value ([1]; maize, in vivo, 25 μM)?
Its value is 2.

What about the “No. plants dead after TP” value ([1]; maize, in vivo, 125 μM) of the same compound?
The value was 2.

What about the “# plants dead after treatment” value ([2]; maize, in vivo) of the same compound?
Its value is 0.
